Assay results reported in PMC3539823 (Journal of medicinal chemistry, 2012).

Experiments:
GLS = biological target: T1, GLS (Homo sapiens, UniProt O94925); conditions: previously reported; cited from earlier work
T1 sequence (O94925 124-669 limits assumed): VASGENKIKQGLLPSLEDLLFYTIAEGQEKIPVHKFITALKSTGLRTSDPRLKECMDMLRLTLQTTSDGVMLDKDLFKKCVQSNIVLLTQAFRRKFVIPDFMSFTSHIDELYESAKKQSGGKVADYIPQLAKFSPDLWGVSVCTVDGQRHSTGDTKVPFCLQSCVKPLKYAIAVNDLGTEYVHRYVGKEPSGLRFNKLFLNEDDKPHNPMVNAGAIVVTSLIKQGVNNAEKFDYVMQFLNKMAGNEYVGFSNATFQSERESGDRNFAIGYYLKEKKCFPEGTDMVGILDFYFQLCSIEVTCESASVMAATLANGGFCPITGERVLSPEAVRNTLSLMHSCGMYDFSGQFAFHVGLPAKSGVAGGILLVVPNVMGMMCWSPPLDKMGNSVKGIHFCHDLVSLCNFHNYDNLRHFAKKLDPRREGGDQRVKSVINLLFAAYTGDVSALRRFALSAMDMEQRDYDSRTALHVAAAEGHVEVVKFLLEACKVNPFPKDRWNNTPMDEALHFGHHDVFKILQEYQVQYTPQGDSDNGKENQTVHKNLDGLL

[1] = mouse liver microsomes, phase I
[2] = tested on: P493 human lymphoma B cells; test: P493 cell proliferation assay; assay type: cell-based; conditions: P493-6, read-out: IC50 (growth of P493 cells)

Row | SMILES | fold increase in IC50 value from 3 to 5 (GLS) [fold] | stability against microsomes in the presence of NADPH [1] | IC50 [2] [µM]
1 | Nc1nnc(CCSCCc2nnc(N)s2)s1 [Compound 5, Bis-[2-(5-Amino-[1,3,4]thiadiazol-2-yl)-ethylsulfide]] | 50 | – | –
2 | Nc1nnc(CCCCc2nnc(NC(=O)Cc3ccccc3)s2)s1 [Compound 11b, N-(5-(4-(5-amino-1,3,4-thiadiazol-2-yl)butyl)-1,3,4-thiadiazol-2-yl)-2-phenylacetamide] | – | completely stable | –
3 | O=C(CCCCc1nnc(NC(=O)Cc2ccccc2)s1)NCCN1CCCC1 [Compound 29a, 5-(5-(2-phenylacetamido)-1,3,4-thiadiazol-2-yl)-N-(2-(pyrrolidin-1-yl)ethyl)pentanamide] | – | completely stable | ~40
